Source: PubChem BioAssay (NCI)
Several values for one entry are separate records, joined by “and”; a condition that tells them apart may be missing. Equal values may be shown once.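 These data come from cells grown in 96-well plates and exposed to compound for 48 hours at five concentrations. GI50 marks 50% less growth. Definition used: TGI = concentration required for complete inhibition of growth.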

Legend:
Test in all cases: inhibition of tumour cell growth, NCI panel, 48 h
[1] = system: HL-60(TB) leukemia
[2] = system: K-562 leukemia
[3] = system: M14 melanoma
[4] = system: OVCAR-8 ovarian
[5] = system: RPMI-8226 leukemia
[6] = system: SF-295 CNS
[7] = system: SK-MEL-5 melanoma
[8] = system: U251 CNS
[9] = system: NCI-H226 lung
[10] = system: DU-145 prostate

| Structure (SMILES) | TGI [1] [µM] | TGI [2] | TGI [3] [µM] | TGI [4] [µM] | TGI [5] | TGI [6] [µM] | TGI [7] [µM] | TGI [8] [µM] | TGI [9] [µM] | GI50 [10] [µM] | TGI [10] [µM] | GI50 [1] [µM] | GI50 [2] [µM] | GI50 [3] [µM] | GI50 [4] [µM] | GI50 [5] [µM] | GI50 [6] [µM] | GI50 [7] [µM] | GI50 [8] [µM] | GI50 [9] [µM] |
| --- | --- | --- | --- | --- | --- | --- | --- | --- | --- | --- | --- | --- | --- | --- | --- | --- | --- | --- | --- | --- |
| Nc1ccc2n[se]nc2c1 | > 100 | > 100 µM | > 100 | > 100 | > 100 µM | > 100 | > 100 | > 100 |  |  |  |  |  |  |  |  |  |  |  |  |
| CCCCC1=CSC(c2ccccc2)=C(c2ccccc2)S1 |  | > 100 µM | > 100 | > 100 | > 100 µM | > 100 | > 100 | > 100 | > 100 |  |  |  |  |  |  |  |  |  |  |  |
| COC(=O)CCSC(=O)Nc1ccc(N=Nc2ccccc2)cc1 |  | > 100 µM | > 100 | > 100 | > 100 µM | > 100 | > 100 | > 100 | > 100 |  |  |  |  |  |  |  |  |  |  |  |
| CCOC(=O)c1c(-c2ccccc2)[n+](=O)c2cc(Cl)c(Cl)cc2n1[O-] | > 100 | > 100 µM | 27.9 | 8.01 | 1.51 µM | 15.9 | 28.8 | 6.01 |  | 9.4 | 22.9 | 2.68 | 3.29 | 13.3 | 2.8 | 0.285 | 4.17 | 14.8 | 2.33 |  |
| Nc1nnc2c(-c3ccccc3)[nH]nc2n1 | > 100 | > 100 µM | > 100 | > 100 | > 100 µM | > 100 |  |  | > 100 |  |  |  |  |  |  |  |  |  |  |  |
| COc1cc(-c2cc(/C=C/C(=O)c3ccc(F)c(F)c3)[nH]n2)cc(OC)c1OC | 6.03 | 16.5 µM | 11.9 | 17.3 | 6 µM |  | 6.41 | 15.7 | 15.8 |  |  | 2.48 | 3.31 | 2.7 | 2.88 | 1.76 |  | 2.27 | 2.9 | 3.72 |
| Cc1ccc(NC(=O)CCc2nc(=S)[nH][nH]2)cc1 | > 100 | > 100 µM | > 100 | > 100 | > 100 µM | > 100 | > 100 | > 100 | > 100 |  |  |  |  |  |  |  |  |  |  |  |
| O=[N+]([O-])c1ccc(C2=Nc3ccccc3S(=O)C(c3ccccc3)C2)cc1 (stereo unspecified) | 39.1 | 34.5 µM | 42 | > 100 | 29.6 µM | > 100 |  |  | 49.4 |  |  |  |  |  |  |  |  |  |  |  |
| CCOc1ccccc1N=Nc1ccc2oc(=O)c(C(C)=O)cc2c1 | > 100 | > 100 µM | > 100 | > 100 | > 100 µM | > 100 | > 100 | > 100 |  |  |  |  |  |  |  |  |  |  |  |  |
| COC(=O)C(=O)Cc1nc2ccccc2s1 | > 100 | > 100 µM | > 100 | > 100 |  | > 100 | > 100 | > 100 | > 100 |  |  |  |  |  |  |  |  |  |  |  |
| Cn1c(CBr)nc2c1C(=O)c1nc(CBr)[nH]c(=O)c1C2=O |  | > 100 µM | > 100 | > 100 | > 100 µM | > 100 | > 100 | > 100 |  |  |  |  |  |  |  |  |  |  |  |  |
| CC(C)(CN1C(=O)C(Cl)=C(Cl)C1=O)CN1C(=O)C(Cl)=C(Cl)C1=O | 2.84 | 7.1 µM | 38.2 | 14.7 | 4.96 µM | 58.8 | 51.6 | 38.7 | 53.4 |  |  |  |  |  |  |  |  |  |  |  |
| O=C(O/N=C1\CCCC\C1=C/c1ccccc1)c1ccc([N+](=O)[O-])cc1 | > 100 | > 100 µM | > 100 | > 100 | > 100 µM | > 100 |  | > 100 | > 100 |  |  |  |  |  |  |  |  |  |  |  |
| Cc1cc(=O)oc2ccc(OC/C=C3\CCC(=O)O3)cc12 |  | > 100 µM | 5.37 | 25 | 11.2 µM | 41.9 | 32.5 | 24.6 | 57.2 | 3.62 | 17.7 |  | 7.79 | 1.75 | 10 | 1.81 | 15.3 | 16.4 | 12.2 | 17.2 |
| O=S1(=O)N2CN3CN(C2)CN1C3 | 62.8 | > 31.6 µM and 169 µM | 355 | 110 | 56.6 µM and 124 µM | 63.3 | 124 |  | 188 |  |  |  |  |  | 30.8 | 33.7 |  |  |  |  |
| Cc1ccc(NC(=O)CCCC(=O)CC(=O)c2ccc(Br)cc2)cc1 |  | > 100 µM | > 100 | > 100 | > 100 µM | > 100 | > 100 | > 100 | > 100 |  |  |  |  |  |  |  |  |  |  |  |
| N#CCCn1[nH]c(=O)c(Cl)c(Cl)c1=O | 35.5 | 28.1 µM |  | 32.9 | 37.5 µM | 32.1 |  | 30.3 | 49.4 |  |  |  |  |  |  |  |  |  |  |  |
| C[C@@]1([C@H](OC(=O)c2ccccc2)C(N)=O)CO1 |  | > 100 µM | 53.9 | 46.1 | > 100 µM | 41.5 | 31.3 | 37.5 |  | 27.2 | > 100 |  | 5.67 | 22.1 | 20.1 | 26.2 | 16.9 | 15.1 | 17.1 |  |
| CC1(C)CCC(Sc2ccccc2)O1 (stereo unspecified) | > 100 | > 100 µM | > 100 | > 100 | > 100 µM | > 100 | > 100 | > 100 |  |  |  |  |  |  |  |  |  |  |  |  |
| O=C(O)C1=C/C(=C(/c2ccccc2)c2cc(C(=O)O)c(O)c3ccccc23)c2ccccc2C1=O |  | > 100 µM | > 100 | > 100 | > 100 µM | > 100 | > 100 | > 100 | > 100 |  | > 100 |  |  |  |  |  |  |  |  |  |
| O=C1c2ccccc2C(=O)c2cc3c(cc21)CS(=O)C3 | > 100 | > 100 µM | > 100 | > 100 | > 100 µM | > 100 | > 100 | > 100 |  |  |  |  |  |  |  |  |  |  |  |  |
| O=C(c1ccc(O)cc1O)C1C(c2ccc(O)cc2)OC(c2ccc(O)cc2)C1C(=O)c1ccc(O)cc1O (stereo unspecified) | 39.4 |  | 34.5 | 56.8 |  | 67.9 | 29.6 | 32.9 | 40.4 |  |  |  |  |  |  |  |  |  |  |  |
| COc1ccccc1NC(=O)C1=C(C)NC(C)=C(C(=O)Nc2ccccc2OC)C1c1ccccc1[N+](=O)[O-] | 45.3 | 65 µM | 30 | 40.5 | 65.6 µM | > 100 | 74.3 | 29.7 | 35.2 |  |  |  |  |  |  |  |  |  |  |  |
